Assay results from patent US20020172694A1, “Extended release formulation of diltiazem hydrochloride” (DOV Pharmaceutical, Inc., priority 2001, published 2002).
Structures can show the parent of a compound that is named as a salt.

How the values were obtained:
[1] = single oral dose, healthy individual, FIG. 6
Description: One hundred twenty milligrams (120 mg) of diltiazem hydrochloride powder were combined with a 360 mg dose of DILTIAZEM OD ER. […] Consequently, this mixture contained approximately 25 percent by weight of a quick release preparation of diltiazem, and approximately 75 percent by weight of a slow release preparation of diltiazem, based upon the percentage of diltiazem in the final mixture.
The resulting mixture was then encapsulated in a larger gelatin capsule and orally administered to a healthy individual, taking no medications which would affect diltiazem plasma levels or interfere with their proper determination. Controls containing either 120 mg diltiazem hydrochloride or 360 mg Diltiazem ER were administered separately. An interval of approximately 5-7 days elapsed between the administration of each agent tested in this example.
An intravenous blood sample was withdrawn into pre-cooled, commercially available [sequence] (TM) containing EDTA (ethylenediamine tetraacetic acid) as an anticoagulant Just before administration of the test agent; this sample represented the zero time sample. The blood sample was centrifuged for 15 minutes under conditions known to those skilled in the art. […] The plasma levels of diltiazem were determined by HPLC (High Performance Liquid Chromatography) analysis according to the method of Eradiri (36).

angina pectoris = details: cited from earlier work
[2] = in vivo; cited from earlier work

Structure (SMILES)	time after administration by which most of the preparation is gone [1] [h]	time to peak plasma levels of diltiazem after administration [1] [h]	incidence of side effects versus other calcium channel blockers (angina pectoris; comparative studies)	efficacy versus beta-adrenergic receptor blockers, nitrates and verapamil (angina pectoris; in vivo)	efficacy versus nifedipine (angina pectoris; in vivo)	plasma half-life [2] [h]
COc1ccc([C@@H]2Sc3ccccc3N(CCN(C)C)C(=O)[C@@H]2OC(C)=O)cc1 [diltiazem hydrochloride]	5 to 6	1 to 2	–	–	–	–
COc1ccc([C@@H]2Sc3ccccc3N(CCN(C)C)C(=O)[C@@H]2OC(C)=O)cc1 [diltiazem, 25-cis-3-(Acetoxyl)-5-[2-(dimethylamino)ethyl]-2-3-dihydro-2-(4-methoxyphenyl)-1,5-benzothiazepin-4(5H)-one]	–	–	lower incidence of side effects	equivalent	more effective	2 to 6
